Entries after “also recorded” stand apart in the source; their conditions may differ.
Columns and labels:
Format in all cases: cell-based, HIV-1
[1] = tested on: RTV-302, patient 97-302 (RT K103N, I135M, T200A, P225H); assay: Phenotypic susceptibility assay (patient RTV); settings: patient virus RTV-302
Method: (§1) The resistance test vectors containing a functional luciferase gene cassette were constructed and host cells were transfected with the resistance test vector DNA. The resistant test vectors contained patient-derived reverse transcriptase and protease sequences that were either susceptible or resistant to the antiretroviral agents, such as nucleoside reverse transcriptase inhibitors, non-nucleoside reverse transcriptase inhibitors and protease inhibitors. […] The IC50 values were determined by plotting percent drug inhibition vs. log10 drug concentration.
(§2) Host cells were seeded in 10-cm-diameter dishes and were transfected several days after plating with resistance test vector plasmid DNA and the envelope expression vector. […] HIV capsid protein (p24) levels in the harvested cell culture media were determined by an EIA method as described by the manufacturer (SIAC; Frederick, Md.). […] The inhibitory effect of the drug was determined using the following equation: % luciferase inhibition=1−(RLUluc [drug]÷RLUluc)×100 where RLUluc [drug] is the relative light unit of luciferase activity in infected cells in the presence of drug and RLUluc is the Relative Light Unit of luciferase activity in infected cells in the absence of drug. […]
A resistance test vector was constructed as described in example 1 from a patient sample designated as 97-302. […] An IC50 was determined for each drug tested. […]

[2] = tested on: RTV-1058 clone 10 (RT L100I, K103N, Y188L); assay: Phenotypic susceptibility assay (patient RTV clone)
Text: (§3) The resistance test vectors containing a functional luciferase gene cassette were constructed and host cells were transfected with the resistance test vector DNA. The resistant test vectors contained patient-derived reverse transcriptase and protease sequences that were either susceptible or resistant to the antiretroviral agents, such as nucleoside reverse transcriptase inhibitors, non-nucleoside reverse transcriptase inhibitors and protease inhibitors. The resistance test vector viral particles produced by transfecting the resistance test vector DNA into host cells, either in the presence or absence of protease inhibitors, were used to infect target host cells grown either in the absence of NRTI or NNRTI or in the presence of increasing concentrations of the drug. The amount of luciferase activity produced in infected target host cells in the presence of drug was compared to the amount of luciferase produced in infected target host cells in the absence of drug. Drug resistance was measured as the amount of drug required to inhibit by 50% the luciferase activity detected in the absence of drug (inhibitory concentration 50%, IC50). The IC50 values were determined by plotting percent drug inhibition vs. log10 drug concentration.
(§4) Host cells were seeded in 10-cm-diameter dishes and were transfected several days after plating with resistance test vector plasmid DNA and the envelope expression vector. Transfections were performed using a calcium-phosphate precipitation procedure. The cell culture media containing the DNA precipitate was replaced with fresh medium, from one to 24 hours, after transfection. Cell culture media containing resistance test vector viral particles was harvested one to four days after transfection and was passed through a […] filter before being stored at […]. HIV capsid protein (p24) levels in the harvested cell culture media were determined by an EIA method as described by the manufacturer (SIAC; Frederick, Md.). Before infection, target cells (293 and 293/T) were plated in cell culture media. Control infections were performed using cell culture media from mock transfections (no DNA) or transfections containing the resistance test vector plasmid DNA without the envelope expression plasmid. One to three or more days after infection the media was removed and cell lysis buffer (Promega) was added to each well. Cell lysates were assayed for luciferase activity (FIG. 3). The inhibitory effect of the drug was determined using the following equation: % luciferase inhibition=1−(RLUluc [drug]÷RLUluc)×100 where RLUluc [drug] is the relative light unit of luciferase activity in infected cells in the presence of drug and RLUluc is the Relative Light Unit of luciferase activity in infected cells in the absence of drug. IC50 values were obtained from the sigmoidal curves that were generated from the data by plotting the percent inhibition of luciferase activity vs. the log10 drug concentration. The drug inhibition curves are shown in (FIG. 3).
(§5) A resistance test vector was constructed as described in Example 1 from a patient sample designated 98-1058. This patient had been previously treated with ddI, d4T, AZT, 3TC, ddC and abacavir (NRTIs), indinavir and amprenavir (PRIs) and nevirapine (an NNRTI). Isolation of viral RNA and RT/PCR was used to generate a patient derived segment that comprised viral sequences coding for all of RP and aa 1-313 of RT. The PDS was inserted into an indicator gene viral vector to generate a resistance test vector designated RTV-1058. Individual clones of RTV-1058 were selected and were then tested in a phenotypic assay to determine accurately and quantitatively the level of susceptibility to a panel of anti-retroviral drugs. The panel of antiretroviral drugs comprised members of the classes known as NRTIs (AZT, 3TC, d4T, kkI an ddC), NNRTIs (delavirdine and nevirapine), an PRIs (indinavir, nelfinavir, ritonavir, and saquinavir). […]

[3] = tested on: RTV-1058 clone 4 (RT K103N); assay: as above
Text: as §3, §4, §5

[4] = tested on: RTV-1058 clone 5 (RT L100I, K103N); assay: as above
Text: as §3, §4, §5

P225H-RTV = assay: Phenotypic susceptibility assay (site directed mutant RTV); settings: P225H alone vs wild type control RTV
Text: as §3, §4
(§6) Genotypic changes that are observed to correlate with changes in phenotypic patterns of drug susceptibility are evaluated by construction of resistance test vectors containing the specific mutation on a defined, wild-type (drug susceptible) genetic background. Mutations may be incorporated alone and/or in combination with other known drug resistance mutations that are thought to modulate the susceptibility of HIV to a certain drug or class of drugs. Mutations are introduced into the resistance test vector through any of the widely known methods for site-directed mutagenesis. In one embodiment of this invention the mega-primer PCR method for site-directed mutagenesis is used. […]

[5] = tested on: RTV with P236L plus K103N, Y181C or both; assay: as above; settings: P236L with K103N and/or Y181C vs RTV lacking P236L
Text: as §3, §4, §6

[6] = tested on: G190S-RTV and G190A-RTV (mutation at codon 190); assay: as above; settings: G190A or G190S vs wild type reference RTV; also statements on codon 190 alone or with 103/101
Method: as §1, §2

| Structure (SMILES) | change in susceptibility [1] | loss of susceptibility (fold, IC50) [2] | loss of susceptibility (fold, IC50) [3] | loss of susceptibility (fold, IC50) [4] [fold] | change in susceptibility (P225H-RTV) | change in susceptibility [5] | change in susceptibility [6] |
| --- | --- | --- | --- | --- | --- | --- | --- |
| CC(C)Nc1cccnc1N1CCN(C(=O)c2cc3cc(NS(C)(=O)=O)ccc3[nH]2)CC1 [delavirdine] | modest decrease; also recorded: reduced susceptibility | greater than 250 fold | 85 fold | 250 | more susceptible; also recorded: increase; also recorded: increase3s susceptibility | less susceptible; also recorded: additional reduction; also recorded: severe resistance | slightly more susceptible; also recorded: slightly increase susceptibility; also recorded: slight increase |
| O=C1Nc2ccc(Cl)cc2[C@@](C#CC2CC2)(C(F)(F)F)O1 [efavirenz] |  |  |  |  |  | restores a significant portion of the loss of susceptibility |  |
| Cc1ccnc2c1NC(=O)c1cccnc1N2C1CC1 [nevirapine] | significant decrease; also recorded: reduced susceptibility | greater than 800 fold | greater than 800 fold | 120 | No significant change; also recorded: little or no change |  | markedly less susceptible; also recorded: greatly reduce susceptibility; also recorded: large decrease |

From US7037644B1, “Means and methods for monitoring non-nucleoside reverse transcriptase inhibitor antiretroviral therapy and guiding therapeutic decisions in the treatment of HIV/AIDS” (ViroLogic, Inc., priority 1998, dated 2006)
